Reference: patent US20260373266A1, “PROTEIN DEGRADERS AND USES THEREOF” (KYMERA THERAPEUTICS, INC., priority 2022, published 2026)

These compounds were tested against T1, DCAF1 WD40 domain (residues 1077-1390) (Homo sapiens, UniProt Q9Y4B6) (assay: DCAF1 binding assay by SPR (Biacore 8K+), DCAF1-3 KD). Conditions: 25 °C, read-out: DCAF1-3 SPR (KD).
T1 construct: DCAF1 WD40 domain (residues 1077-1390)
T1 sequence (Q9Y4B6 1077-1390): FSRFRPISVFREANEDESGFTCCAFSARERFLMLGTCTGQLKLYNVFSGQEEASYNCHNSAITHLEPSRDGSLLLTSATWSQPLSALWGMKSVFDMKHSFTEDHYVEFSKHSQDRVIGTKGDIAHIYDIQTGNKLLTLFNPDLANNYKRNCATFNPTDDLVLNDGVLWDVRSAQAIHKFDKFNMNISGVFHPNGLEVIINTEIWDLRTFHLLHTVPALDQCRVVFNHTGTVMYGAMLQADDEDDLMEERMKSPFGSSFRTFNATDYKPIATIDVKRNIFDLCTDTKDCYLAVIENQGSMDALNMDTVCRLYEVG

Row | SMILES | Kd
1 | C=CC(=O)NCC1CCN(c2ccnc(N3CC[C@H]4[C@@H]3CCCN4c3cccc(F)c3)c2)CC1 [I-671] | < 10 µM
2 | C=CC(=O)NCCC1CCN(c2ccnc(N3CC[C@H]4[C@@H]3CCCN4c3cccc(F)c3)c2)CC1 [I-672] | < 10 µM
3 | CN(c1cccc(F)c1)[C@@H]1CCN(c2cc(N3CCCCC3)ccn2)C1 [I-673] | < 10 µM
4 | NCCOCCOCCOCCOCC(=O)c1[nH]cc(C(=O)N[C@@H](CC(N)=O)c2cccc(Cl)c2)c1-c1ccccc1F [I-674] | < 10 µM
5 | NCCOCCOCCOCCOCCOCC(=O)c1[nH]cc(C(=O)N[C@@H](CC(N)=O)c2cccc(Cl)c2)c1-c1ccccc1F [I-675] | < 10 µM
6 | NCCOCCOCCOCCOCCOCCOCC(=O)c1[nH]cc(C(=O)N[C@@H](CC(N)=O)c2cccc(Cl)c2)c1-c1ccccc1F [I-676] | < 10 µM
7 | c1cc(N2CCOCC2)cc(N[C@@H]2CCCN(c3ccc(OCCN4CCCC4)nc3)C2)n1 [I-677] | 10 to 100 µM
8 | c1cc(N2CCOCC2)cc(N[C@@H]2CCCN(c3nccc(N4CCCC4)n3)C2)n1 [I-678] | 10 to 100 µM
9 | Clc1cc(N2CCC[C@@H](Nc3cc(N4CCOCC4)ccn3)C2)nc(C2CC2)n1 [I-679] | > 200 µM
10 | c1ccc(Cn2ccc3c(N4CCC[C@@H](Nc5cc(N6CCOCC6)ccn5)C4)ncnc32)cc1 [I-680] | 100 to 200 µM
11 | Clc1nc2c(c(N3CCC[C@@H](Nc4cc(N5CCOCC5)ccn4)C3)n1)CCNC2 [I-681] | 10 to 100 µM
12 | Nc1ccc(F)cc1N1CCC[C@@H](Nc2cc(N3CCOCC3)ccn2)C1 [I-682] | < 10 µM
13 | N[C@@H](c1ccccc1)c1ccc(N2CCC[C@@H](Nc3cc(N4CCOCC4)ccn3)C2)cc1 [I-683] | 10 to 100 µM
14 | c1cc(N2CCOCC2)cc(N[C@@H]2CCCN(c3ncnc4c3ncn4[C@@H]3CCCCO3)C2)n1 [I-684] | 10 to 100 µM
15 | c1ccc(-c2nc3cccc(N4CCC[C@@H](Nc5cc(N6CCOCC6)ccn5)C4)c3o2)cc1 [I-685] | > 200 µM
16 | CN1CCN(c2ccc(N3CCC[C@@H](Nc4cc(N5CCOCC5)ccn4)C3)nc2)CC1 [I-686] | > 200 µM
17 | c1cc(N2CCOCC2)cc(N[C@@H]2CCCN(c3ccnc(OC4CC4)c3)C2)n1 [I-687] | 10 to 100 µM
18 | c1ccc(-n2cnc3cc(N4CCC[C@@H](Nc5cc(N6CCOCC6)ccn5)C4)ccc32)cc1 [I-688] | > 200 µM
19 | c1cc(CN2CCCC2)cc(N2CCC[C@@H](Nc3cc(N4CCOCC4)ccn3)C2)c1 [I-689] | < 10 µM
20 | c1ccc(COc2cccc(N3CCC[C@@H](Nc4cc(N5CCOCC5)ccn4)C3)c2)cc1 [I-690] | > 200 µM
21 | OCCc1ccc(N2CCC[C@@H](Nc3cc(N4CCOCC4)ccn3)C2)nc1 [I-691] | 10 to 100 µM

Row | SMILES | Kd
22 | c1cn(Cc2ccc(N3CCC[C@@H](Nc4cc(N5CCOCC5)ccn4)C3)cc2)cn1 [I-692] | 100 to 200 µM
23 | CC(C)CNc1ccc(N2CCC[C@@H](Nc3cc(N4CCOCC4)ccn3)C2)cc1 [I-693] | 10 to 100 µM
24 | CCCn1cc(N2CCC[C@@H](Nc3cc(N4CCOCC4)ccn3)C2)cn1 [I-694] | > 200 µM
25 | c1csc(-c2ccc(N3CCC[C@@H](Nc4cc(N5CCOCC5)ccn4)C3)cc2)c1 [I-695] | 10 to 100 µM
26 | OCc1cnc2ccc(N3CCC[C@@H](Nc4cc(N5CCOCC5)ccn4)C3)nn12 [I-696] | 10 to 100 µM
27 | O=C(O)C1(c2cccc(N3CCC[C@@H](Nc4cc(N5CCOCC5)ccn4)C3)c2)CCCC1 [I-697] | 10 to 100 µM
28 | COc1ccc(-c2ccncc2)cc1N1CCC[C@@H](Nc2cc(N3CCOCC3)ccn2)C1 [I-698] | 10 to 100 µM
29 | Cc1cccc(F)c1-c1c(C(=O)N[C@@H](CC(N)=O)c2cccc(Cl)c2)c[nH]c1C(=O)c1ccccn1 [I-699] | < 10 µM
30 | Cc1cccc(F)c1-c1c(C(=O)N[C@@H](CC(N)=O)c2cccc(Cl)c2)c[nH]c1C(=O)c1cccc(N2CCCCC2)c1 [I-700] | < 10 µM
31 | OC1CCCN(c2ccnc(N[C@@H]3CCCN(c4cccc(F)c4)C3)c2)C1 (stereo partly drawn) [I-701] | < 10 µM
32 | Cc1c(F)ccc(F)c1-c1c(C(=O)N[C@@H](CC(N)=O)c2cccc(Cl)c2)c[nH]c1C(=O)c1cccc(-c2ccccc2)c1 [I-702] | < 10 µM
33 | Fc1cccc(N2CCC[C@@H]3[C@H]2CCCN3c2cc(N3CCCCC3)ccn2)c1 [I-703] | > 200 µM
34 | COCCOCC[C@@H]1CCCN(c2ccnc(N3CC[C@@H]4[C@H]3CCCN4c3cccc(F)c3)c2)C1 [I-704] | > 200 µM
35 | C=CC(=O)NCCCC1CCN(c2ccnc(N3CC[C@@H]4[C@H]3CCCN4c3cccc(F)c3)c2)CC1 [I-705] | 100 to 200 µM
36 | Cc1cccc(N2CCC[C@@H]3[C@H]2CCN3c2cc(N3CC4CC(C4)C3)ccn2)c1 [I-706] | < 10 µM
37 | Clc1cccc(N2CCC[C@@H]3[C@H]2CCN3c2cc(N3CC4CC(C4)C3)ccn2)c1 [I-707] | > 200 µM
38 | c1ccc(N2CCC[C@@H]3[C@H]2CCN3c2cc(N3CC4CC(C4)C3)ccn2)cc1 [I-708] | < 10 µM
39 | Oc1ccc(N2CCC[C@@H]3[C@H]2CCN3c2cc(N3CC4CC(C4)C3)ccn2)cc1 [I-709] | 10 to 100 µM
40 | c1ccc(N2CCC[C@H]3[C@@H]2CCN3c2cc(N3CC4CC(C4)C3)ccn2)cc1 [I-710] | 10 to 100 µM
41 | Cc1cccc(N2CCC[C@H]3[C@@H]2CCN3c2cc(N3CC4CC(C4)C3)ccn2)c1 [I-711] | 10 to 100 µM
42 | C=CC(=O)NCCCC1CCN(c2ccnc(N3CC[C@H]4[C@@H]3CCCN4c3cccc(F)c3)c2)CC1 [I-712] | < 10 µM

Row | SMILES | Kd
43 | COCCOCC[C@H]1CCCN(c2ccnc(N3CC[C@@H]4[C@H]3CCCN4c3cccc(F)c3)c2)C1 [I-713] | 10 to 100 µM
44 | COCCOCC[C@@H]1CCCN(c2ccnc(N3CC[C@H]4[C@@H]3CCCN4c3cccc(F)c3)c2)C1 [I-714] | 10 to 100 µM
45 | COCCOCC[C@H]1CCCN(c2ccnc(N3CC[C@H]4[C@@H]3CCCN4c3cccc(F)c3)c2)C1 [I-715] | < 10 µM
46 | Oc1ccc(N2CCC[C@@H](Nc3cc(N4CCCCC4)ccn3)C2)cc1F [I-716] | 10 to 100 µM
47 | Clc1cccc(N2CCC[C@H]3[C@@H]2CCN3c2cc(N3CC4CC(C4)C3)ccn2)c1 [I-717] | < 10 µM
48 | Oc1ccc(N2CCC[C@H]3[C@@H]2CCN3c2cc(N3CC4CC(C4)C3)ccn2)cc1 [I-718] | < 10 µM
49 | NCCCCCCCCCCCCCCCCCC1CCN(c2ccnc(N3CC[C@@H]4[C@H]3CCCN4c3cccc(F)c3)c2)CC1 [I-719] | > 200 µM
50 | Fc1cccc(N2CCC[C@H]3[C@@H]2CCCN3c2cc(N3CCCCC3)ccn2)c1 [I-720] | < 10 µM
51 | NCCCCCCCCCCCC1CCN(c2ccnc(N3CC[C@@H]4[C@H]3CCCN4c3cccc(F)c3)c2)CC1 [I-721] | < 10 µM
52 | COc1ccc(N2CCC[C@@H]3[C@H]2CCN3c2cc(N3CC4CC(C4)C3)ccn2)cc1F [I-722] | > 200 µM
53 | C[C@H]1CCCC[C@H]1c1[nH]ncc1C(=O)N[C@@H](CC(N)=O)c1cccc(Cl)c1 [I-723] | < 10 µM
54 | C[C@@H]1CCCCC1c1[nH]ncc1C(=O)N[C@@H](CC(N)=O)c1cccc(Cl)c1 (stereo partly drawn) [I-724] | < 10 µM
55 | NCCCCCCCCCCCCCCC1CCN(c2ccnc(N3CC[C@@H]4[C@H]3CCCN4c3cccc(F)c3)c2)CC1 [I-725] | 10 to 100 µM
56 | CCCCCCC[C@@H]1CCCN(c2ccnc(N3CC[C@@H]4[C@H]3CCCN4c3cccc(F)c3)c2)C1 [I-726] | > 200 µM
57 | CCCCCCC[C@H]1CCCN(c2ccnc(N3CC[C@@H]4[C@H]3CCCN4c3cccc(F)c3)c2)C1 [I-727] | > 200 µM
58 | CCCCCCC[C@@H]1CCCN(c2ccnc(N3CC[C@H]4[C@@H]3CCCN4c3cccc(F)c3)c2)C1 [I-728] | 10 to 100 µM
59 | CCCCCCC[C@H]1CCCN(c2ccnc(N3CC[C@H]4[C@@H]3CCCN4c3cccc(F)c3)c2)C1 [I-729] | 10 to 100 µM
60 | Oc1c(CN2CCCCC2)cccc1[C@@H]1CCCN(c2cccc(F)c2)C1 [I-730] | > 200 µM
61 | Oc1c(CN2CCCCC2)cccc1[C@H]1CCCN(c2cccc(F)c2)C1 [I-731] | > 200 µM
62 | Cc1c(F)ccc(F)c1-c1c(C(=O)N[C@@H](CC(N)=O)c2cccc(Cl)c2)c[nH]c1C(=O)c1cccc(C2CCCCC2)c1 [I-732] | < 10 µM
63 | Nc1ccc(N2CCC[C@@H]3[C@H]2CCN3c2cc(N3CC4CC(C4)C3)ccn2)cc1F [I-733] | < 10 µM

Row | SMILES | Kd
64 | Nc1ccc(N2CCC[C@H]3[C@@H]2CCN3c2cc(N3CC4CC(C4)C3)ccn2)cc1F [I-734] | 10 to 100 µM
65 | Cc1cccc(F)c1-c1[nH]ncc1C(=O)N[C@H](CC(N)=O)c1cc(Cl)cc(Cl)c1 [I-735] | 100 to 200 µM
66 | Cc1cccc(F)c1-c1[nH]ncc1C(=O)N[C@H](CC(N)=O)c1cc(Cl)cc(Cl)c1 [I-736] | < 10 µM
67 | Cc1cc(Cl)cc([C@H](CC(N)=O)NC(=O)c2cn[nH]c2-c2c(C)cccc2F)c1 [I-737] | > 200 µM
68 | Cc1cc(Cl)cc([C@@H](CC(N)=O)NC(=O)c2cn[nH]c2-c2c(C)cccc2F)c1 [I-738] | < 10 µM
69 | Cc1c(F)ccc(F)c1-c1c(C(=O)N[C@@H](CC(N)=O)c2cccc(Cl)c2)c[nH]c1C(=O)c1cccc(C(C)C)c1 [I-739] | < 10 µM
70 | O=C(O)C[C@H](NC(=O)c1cn[nH]c1-c1ccccc1F)c1cccc(Cl)c1 [I-740] | 10 to 100 µM
71 | C[C@H]1CC[C@H](c2[nH]ncc2C(=O)N[C@@H](CC(N)=O)c2cccc(Cl)c2)CC1 [I-741] | < 10 µM
72 | C[C@H]1CC[C@@H](c2[nH]ncc2C(=O)N[C@@H](CC(N)=O)c2cccc(Cl)c2)CC1 [I-742] | < 10 µM
73 | Fc1cccc(N2CCNC(Cc3cc(N4CCCCC4)ccn3)C2)c1 (stereo not drawn) [I-743] | > 200 µM
74 | Cc1cccc(F)c1-c1c(C(=O)N[C@@H](CC(N)=O)c2cccc(Cl)c2)c[nH]c1Nc1cc(N2CCCCC2)ccn1 [I-744] | < 10 µM
75 | NCCCCCCCCCCCCCCCCCCCCC1CCN(c2ccnc(N3CC[C@@H]4[C@H]3CCCN4c3cccc(F)c3)c2)CC1 [I-745] | > 200 µM
76 | CC(=O)Nc1ccc(N2CCC[C@@H]3[C@H]2CCN3c2cc(N3CCCCC3)ccn2)cc1F [I-746] | 10 to 100 µM
77 | CC(=O)Nc1ccc(N2CCC[C@H]3[C@@H]2CCN3c2cc(N3CCCCC3)ccn2)cc1F [I-747] | > 200 µM
78 | Cc1cccc(F)c1-c1[nH]ncc1C(=O)N[C@@H](CC(N)=O)c1cc(F)cc(Cl)c1 [I-748] | 10 to 100 µM
79 | Cc1cccc(F)c1-c1[nH]ncc1C(=O)N[C@H](CC(N)=O)c1cc(F)cc(Cl)c1 [I-749] | < 10 µM
80 | c1cc(N2CCCCC2)cc(N[C@H]2CCC[C@H](C3CCCCC3)C2)n1 [I-750] | > 200 µM
81 | c1cc(N2CCCCC2)cc(N[C@@H]2CCC[C@H](C3CCCCC3)C2)n1 [I-751] | > 200 µM
